Source: patent US11000531B2, “Methods of treating certain depressive disorders and delirium tremens” (MARINUS PHARMACEUTICALS INC., priority 2016, dated 2021)

Columns and labels:
[1] = Ganaxolone solubility in water
[2] = Ganaxolone concentration reached in 30% Captisol solutions (HPLC); format: physicochemical; conditions: dry mixing method, after 90 hours of stirring
Experimental: 500 μl of 10% aqueous Polysorbate 80 solution in a 20 ml scintillation vial were combined with powdered ganaxolone (50 mg). The mixture was stirred to wet the ganaxolone. Solid Captisol (3.2 g), sufficient to form a 30% Captisol solution, was then added to the vial and the vial contents were mixed. Deionized water (8.0 g) was then added and the mixture was vigorously stirred at room temperature overnight to obtain a hazy solution. An aliquot was filtered through 0.2 μm syringe filter and ganaxolone concentration was assayed by HPLC to be 4.28 mg/ml.
Ganaxolone was vigorously stirred in 30% Captisol in the presence of 10% v/v ethanol overnight to obtain a 3.16 mg/ml ganaxolone solution.
Ganaxolone was vigorously stirred in 30% Captisol in the presence of 10% v/v glycerin overnight to obtain a 3.45 mg/ml ganaxolone solution.
Ganaxolone was vigorously stirred in 30% Captisol in the presence of 10% v/v propylene glycol overnight to obtain a 2.53 mg/ml ganaxolone solution.
Powdered ganaxolone (125 mg) was charged into 100 ml beaker. Captisol powder (7.9 g) was then added to the beaker. The mixture was mixed by stirring with a magnetic stir bar for 5 minutes. Deionized water (20.1 g) was weighed into a plastic cup. About half of the water was added into the beaker and the contents were vigorously stirred for 30 minutes to obtain a homogeneous mixture. […]

[3] = human plasma; cited from earlier work
[4] = system: women suffering from postpartum depression; conditions: women with postpartum depression, cited from earlier work

| SMILES | solubility [1] [µg/mL] | ganaxolone concentration after prolonged stirring [2] | half-life [3] | mean HAM-D score lower than placebo-treated subjects ([4]; end of sixty hour intravenous infusion, baseline HAM-D greater than 25) [points] | persistence of effects after infusion ([4]; after intravenous infusion) [days] |
| --- | --- | --- | --- | --- | --- |
| CC(=O)[C@H]1CC[C@H]2[C@@H]3CC[C@H]4C[C@](C)(O)CC[C@]4(C)[C@H]3CC[C@]12C [Ganaxolone, 3α-hydroxy, 3β-methyl-5α-pregnan-20-one] | < 1 | remained unchanged | – | – | – |
| CC(=O)[C@H]1CC[C@H]2[C@@H]3CC[C@H]4C[C@H](O)CC[C@]4(C)[C@H]3CC[C@]12C [Allopregnanolone, 3α,5α-tetrahydroprogesterone] | – | – | about 45 minutes | 12 | 30 |
